Patent EP3722296B1, “DIHYDRONAPHTHYRIDINES AND RELATED COMPOUNDS USEFUL AS KINASE INHIBITORS FOR THE TREATMENT OF PROLIFERATIVE DISEASES” (Deciphera Pharmaceuticals, LLC, priority 2012, dated 2013)

Tests used:
[1] = tested on: Phospho-KIT (Tyr719); assay: GIST430 KIT Western Blot; assay type: cell-based; conditions: GIST430 cells, 4 hours, serum-free medium; read-out: pKIT suppression by western blot analysi GIST430
Description: (§1) GIST48, GIST430, and GIST882 cells were obtained from J. Fletcher (Brigham and Women's Hospital, Boston, MA). GIST T1 cells were obtained from B. Rubin (Cleveland Clinic, Cleveland, OH) and Professor Takahiro Taguchi (Kochi Medical School, Nankoku, Kochi, Japan). […] GIST430 cells were grown in Ham's F10 medium supplemented with 15% characterized fetal bovine serum (Invitrogen, Carlsbad, CA), 30 mg/L bovine pituitary extract (BD Biosciences, San Jose, CA), 0.5% Mito+ serum extender (BD Biosciences, San Jose, CA), 1 unit/mL penicillin G, 1 µg/ml streptomycin, and 0.29 mg/mL L-glutamine at 37 °C, 5%CO2, 95% humidity. GIST T1 cells were grown in DMEM medium supplemented with 10% characterized fetal bovine serum (Invitrogen, Carlsbad, CA), 1 unit/mL penicillin G, 1 µg/ml streptomycin, and 0.29 mg/mL L-glutamine at 37 °C, 5% CO2, and 95% humidity.
(§2) One hundred fifty thousand cells were added per well in a 24-well tissue-culture treated plate. […] Medium was aspirated, cells were washed with PBS, and serum-free Ham's F10 medium was added. […] Cells were washed with PBS, then lysed. Cell lysates were separated by SDS-PAGE and transferred to PVDF. Phospho-KIT (Tyr719) was detected using an antibody from Cell Signaling Technology (Beverly, MA), ECL Plus detection reagent (GE Healthcare, Piscataway, NJ) and a Molecular Devices Storm 840 phosphorimager in fluorescence mode. Blots were stripped and probed for total KIT using an antibody from Santa Cruz Biotech (Santa Cruz, CA). IC50 values were calculated using Prism software (Graphpad, San Diego, CA).

[2] = tested on: Phospho-KIT (Tyr719); assay: GIST48 KIT Western Blot; assay type: cell-based; conditions: GIST48 cells, 4 hours, serum-free medium; read-out: pKIT suppression by western blot analysi GIST48
Description: as §1
as §2, with “Two” for “One”, “RPMI1640” for “Ham's F10”

[3] = tested on: GIST T1 cells; assay: GIST T1 Cell Proliferation Assay; assay type: cell-based; conditions: Homo sapiens, GISTT1, 72 h, 68 hours + 4 hours resazurin
Description: GIST48, GIST430, and GIST882 cells were obtained from J. Fletcher (Brigham and Women's Hospital, Boston, MA). GIST T1 cells were obtained from B. Rubin (Cleveland Clinic, Cleveland, OH) and Professor Takahiro Taguchi (Kochi Medical School, Nankoku, Kochi, Japan). Briefly, GIST48 and GIST 882 cells were grown in RPMI 1640 medium supplemented with 15% characterized fetal bovine serum (Invitrogen, Carlsbad, CA), 1 unit/mL penicillin G, 1 µg/ml streptomycin, and 0.29 mg/mL L-glutamine at 37 °C, 5% CO2, and 95% humidity. GIST430 cells were grown in Ham's F10 medium supplemented with 15% characterized fetal bovine serum (Invitrogen, Carlsbad, CA), 30 mg/L bovine pituitary extract (BD Biosciences, San Jose, CA), 0.5% Mito+ serum extender (BD Biosciences, San Jose, CA), 1 unit/mL penicillin G, 1 µg/ml streptomycin, and 0.29 mg/mL L-glutamine at 37 °C, 5%CO2, 95% humidity. GIST T1 cells were grown in DMEM medium supplemented with 10% characterized fetal bovine serum (Invitrogen, Carlsbad, CA), 1 unit/mL penicillin G, 1 µg/ml streptomycin, and 0.29 mg/mL L-glutamine at 37 °C, 5% CO2, and 95% humidity.
A serial dilution of test compound was dispensed into a 384-well black clear bottom plate (Corning, Corning, NY). One thousand two-hundred fifty cells were added per well in 50 µL complete growth medium. Plates were incubated for 68 hours at 37 °C, 5% CO2, 95% humidity. At the end of the incubation period 10 µL of a 440 µM solution of resazurin (Sigma, St. Louis, MO) in PBS was added to each well and incubated for an additional 4 hours at 37 °C, 5% CO2, 95% humidity. Plates were read on a Synergy2 reader (Biotek, Winooski, VT) using an excitation of 540 nm and an emission of 600 nm.

[4] = target: T1, c-KIT T670I kinase (Homo sapiens, UniProt P10721, T670I); assay: c-KIT T670I kinase assay; assay type: biochemical; conditions: enzymatic assay
T1 construct: The construct contains residues T544-V976 of cKit; GST (N); TEV cleavage site (internal); purchased deCODE Biostructures
Procedure, shortened: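 Enzyme: GST-fused, N-terminally tagged cKit bearing T670I, with TEV cleavage site. Reaction started by mixing compound dilutions with reaction mix; activity read continuously over 5 h at 30 °C as loss of 340 nm absorbance from NADH consumption.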

[5] = target: T2, c-KIT D816V kinase (Homo sapiens, UniProt P10721, D816V); assay: c-KIT D816V kinase Assay; assay type: biochemical; conditions: enzymatic assay, ATP 200 uM
T2 construct: residues T544-V976 with N-terminal GST fusion; purchased deCODE Biostructures
Procedure, shortened: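 Coupled assay in which NADH oxidation was tracked as decreasing absorbance at 340 nm, continuously for 5 hours at 30 °C after adding serially diluted compound. Enzyme: cKit residues T544-V976 with N-terminal tag, GST fusion and TEV cleavage site.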

[6] = target: T3, c-KIT V654A kinase (Homo sapiens, UniProt P10721, V654A); assay: c-KIT V654A Kinase Assay; assay type: biochemical; conditions: enzymatic assay, ATP 200 µM
T3 construct: residues T544-V976 with N-terminal GST fusion; purchased deCODE Biostructures
Procedure, shortened: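 Kinase activity tracked by coupled NADH consumption, monitored continuously at 340 nm over 6 h at 30 °C after serially diluted compound was mixed in to start inhibition. Enzyme used was a GST-fused, N-terminally tagged cKIT T544–V976 construct with a TEV cleavage site.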

[7] = target: c-KIT kinase (Homo sapiens, UniProt P10721); assay: c-KIT kinase Assay; assay type: biochemical; set-up: cKIT residues T544-V976; GST (N); TEV cleavage site (internal); purchased deCODE Biostructures; conditions: enzymatic assay, ATP 200 µM; read-out: KIT (wt) IC50
Procedure, shortened: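 This continuous spectrophotometric assay tracked c-KIT kinase turnover through NADH consumption at 340 nm, recorded for 2 hours at 30 °C. The enzyme construct from deCODE Biostructures carried an N-terminal tag, a GST-fusion sequence and a TEV cleavage site. Percent inhibition came from reaction rates over 0 to 1 h relative to a no-compound control, and IC50 values were derived with GraphPad Prism.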

[8] = target: T4, c-KIT D816H kinase (Homo sapiens, UniProt P10721, D816H); assay: c-KIT D816H Kinase Assay; assay type: biochemical; conditions: enzymatic assay, ATP 200 µM
T4 construct: The construct contains residues T544-V976 of cKit; GST (N); TEV cleavage site (internal); purchased deCODE Biostructures
Procedure, shortened: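 Mutant cKit enzyme, expressed as a GST-fusion construct carrying an N-terminal tag and TEV site, was mixed with serially diluted compound to start reactions. Activity tracked via NADH consumption, read continuously at 340 nm over 6 hours at 30 °C.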

Sequence of c-KIT kinase (P10721 544-976): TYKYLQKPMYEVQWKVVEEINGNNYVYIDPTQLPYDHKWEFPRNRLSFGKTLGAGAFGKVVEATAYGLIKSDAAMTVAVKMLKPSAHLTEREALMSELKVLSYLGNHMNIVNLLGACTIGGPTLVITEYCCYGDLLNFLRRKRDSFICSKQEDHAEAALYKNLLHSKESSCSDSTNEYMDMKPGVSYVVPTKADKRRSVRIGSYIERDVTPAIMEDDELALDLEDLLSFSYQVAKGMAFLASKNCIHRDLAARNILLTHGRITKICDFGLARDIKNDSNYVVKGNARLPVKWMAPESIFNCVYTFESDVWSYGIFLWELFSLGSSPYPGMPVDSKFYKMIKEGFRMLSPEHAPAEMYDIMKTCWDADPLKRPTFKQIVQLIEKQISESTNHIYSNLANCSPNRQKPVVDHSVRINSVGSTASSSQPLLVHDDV
T3 sequence (P10721 544-976 V654A): as the sequence (P10721 544-976) above, with V111A counted along it
T2 sequence (P10721 544-976 D816V): as the sequence (P10721 544-976) above, with D273V counted along it
T1 sequence (P10721 544-976 T670I): as the sequence (P10721 544-976) above, with T127I counted along it
T4 sequence (P10721 544-976 D816H): as the sequence (P10721 544-976) above, with D273H counted along it

SMILES | IC50 [1] [nM] | IC50 [2] [nM] | IC50 [3] [nM] | IC50 [4] [nM] | IC50 [5] [nM] | IC50 [6] [nM] | IC50 [7] [nM] | IC50 [8] [nM]
CCn1c(=O)c(-c2cc(NC(=O)Nc3ccccc3)c(F)cc2Cl)cc2cnc(NCCCN(C)C)cc21 [Example 30, 1-(4-chloro-5-(7-(3-(dimethylamino)propylamino)-1-ethyl-2-oxo-1,2-dihydro-1,6-naphthyridin-3-yl)-2-fluorophenyl)-3-phenylurea] | 10 to 100 | 100 to 1000 | – | – | – | – | – | –
CCn1c(=O)c(-c2cc(NC(=O)Nc3ccccc3)c(F)cc2F)cc2cnc(NC(C)=O)cc21 [Example 66, 1-(5-(7-acetamido-1-ethyl-2-oxo-1,2-dihydro-1,6-naphthyridin-3-yl)-2,4-difluorophenyl)-3-phenylurea] | 10 to 100 | 100 to 1000 | < 10 | – | – | – | – | –
CCn1c(=O)c(-c2cc(NC(=O)Nc3cc(F)ccc3F)c(F)cc2Cl)cc2cnc(NC)cc21 [Example 68, 1-(4-chloro-5-(1-ethyl-7-(methylamino)-2-oxo-1,2-dihydro-1,6-naphthyridin-3-yl)-2-fluorophenyl)-3-(2,5-difluorophenyl)urea] | 10 to 100 | 100 to 1000 | < 10 | 10 to 100 | 10 to 100 | 10 to 100 | < 10 | –
CNc1cc2c(cn1)cc(-c1cc(NC(=O)Nc3cccc(F)c3)c(F)cc1C)c(=O)n2C(C)C [Example 41, 1-(2-fluoro-5-(1-isopropyl-7-(methylamino)-2-oxo-1,2-dihydro-1,6-naphthyridin-3-yl)-4-methylphenyl)-3-(3-fluorophenyl)urea] | 10 to 100 | 100 to 1000 | – | > 1000 | 10 to 100 | 10 to 100 | < 10 | < 10
CCn1c(=O)c(-c2cc(NC(=O)Nc3cc(F)cc(F)c3)c(F)cc2F)cc2cnc(NC)cc21 [Example 63, 1-(3,5-difluorophenyl)-3-(5-(1-ethyl-7-(methylamino)-2-oxo-1,2-dihydro-1,6-naphthyridin-3-yl)-2,4-difluorophenyl)urea] | 10 to 100 | 100 to 1000 | < 10 | 10 to 100 | 10 to 100 | < 10 | < 10 | –
CCn1c(=O)c(-c2cc(NC(=O)Nc3cccc(Cl)c3)c(F)cc2F)cc2cnc(NC)cc21 [Example 17, 1-(3-chlorophenyl)-3-(5-(1-ethyl-7-(methylamino)-2-oxo-1,2-dihydro-1,6-naphthyridin-3-yl)-2,4-difluorophenyl)urea] | 10 to 100 | 10 to 100 | – | – | – | – | – | –
CCn1c(=O)c(-c2cc(NC(=O)Nc3ccccc3)c(F)cc2Cl)cc2cnc(N)cc21 [Example 21, 1-(5-(7-amino-1-ethyl-2-oxo-1,2-dihydro-1,6-naphthyridin-3-yl)-4-chloro-2-fluorophenyl)-3-phenylurea] | < 10 | 10 to 100 | < 10 | – | – | – | – | –
CCn1c(=O)c(-c2cc(NC(=O)Nc3ccccc3)c(F)cc2Br)cc2cnc(NC(C)=O)cc21 [Example 53, 1-(5-(7-acetamido-1-ethyl-2-oxo-1,2-dihydro-1,6-naphthyridin-3-yl)-4-bromo-2-fluorophenyl)-3-phenylurea] | < 10 | 100 to 1000 | < 10 | – | – | – | – | –
CCn1c(=O)c(-c2cc(NC(=O)Nc3cc(F)cc(F)c3)c(F)cc2C)cc2cnc(NC(=O)N(C)C)cc21 [Example 108, 3-(3-(5-(3-(3,5-difluorophenyl)ureido)-4-fluoro-2-methylphenyl)-1-ethyl-2-oxo-1,2-dihydro-1,6-naphthyridin-7-yl)-1,1-dimethylurea] | 10 to 100 | 100 to 1000 | – | 10 to 100 | 10 to 100 | 100 to 1000 | 10 to 100 | 10 to 100
CCn1c(=O)c(-c2cc(NC(=O)Nc3cc(F)cc(CN4CCN(C)CC4)c3)c(F)cc2Cl)cc2cnc(NC)cc21 [Example 88, 1-(4-chloro-5-(1-ethyl-7-(methylamino)-2-oxo-1,2-dihydro-1,6-naphthyridin-3-yl)-2-fluorophenyl)-3-(3-fluoro-5-((4-methylpiperazin-1-yl)methyl)phenyl)urea] | 10 to 100 | 10 to 100 | < 10 | – | – | – | – | –
CCn1c(=O)c(-c2cc(NC(=O)Nc3cccc(CN4CCN(C)CC4)c3)c(F)cc2Cl)cc2cnc(NC)cc21 [Example 79, 1-(4-chloro-5-(1-ethyl-7-(methylamino)-2-oxo-1,2-dihydro-1,6-naphthyridin-3-yl)-2-fluorophenyl)-3-(3-((4-methylpiperazin-1-yl)methyl)phenyl)urea] | 10 to 100 | 10 to 100 | < 10 | – | – | – | – | –
